Source: patent publication US20250109275A1, “AMINE FATTY ACID ADDUCTS AS TIRE COMPOUNDING ADDITIVES” (priority 2023, published 2025)

Key:
[1] = Pour point of the additive; type: physicochemical; parameters: unit not given here; conditions: neat additive
[2] = Flash point of the additive; type: physicochemical; conditions: neat additive
[3] = neat additive
Text: Additional characteristics of the exemplary additives and controls are shown below in Table 9. […] The Control and Control 2 are the presented formula without an additive included. […] Blend 1 is the presented formula with a blend of rosin ester tackifier and fatty acid ester used as a control additive. For Control 2 and Inventive Ex. 1-Adj, the first pass and second pass were mixed in the mixer, but the final pass was mixed on the mill. Inventive Ex. 1-Adj was split into three (3) to allow for three (3) different cure adjustments to try to increase the Ts2 (the […] time for the viscosity to increase 2 units above minimum torque (ML)), slightly reduce Tc90 (the time it takes to get to 90% of the maximum state of cure/cross-linking (MH or maximum torque)), and increase the maximum torque (MH) to more closely match the Moving Die Rheometer (MDR) curve of the control compound.

Pour Point [1]	Flash Point [2]	Molecule	Water Solubility [3]
36	>200 C.	CCCCCCCC/C=C\CCCCCCCC(=O)NCCNCCN [Inventive Ex. 1, diethylenetriamine (DETA) oleic acid amidoamine]	–
0	113 C.	CCCCCCCC/C=C\CCCCCCCC(=O)NCCCN(C)C [Inventive Ex. 6, dimethylaminopropylamine (DMAPA) oleic acid amidoamine]	–
−12	>200 C.	tetraethylenepentamine (TEPA) oleic acid amidoamine [Inventive Ex. 5]	–

Molecule	Pour Point [1]	Flash Point [2]	Water Solubility [3]
CCCCCCCC/C=C\CCCCCCCC1=NCCN1CCN [Inventive Ex. 2, diethylenetriamine (DETA) oleic acid imidazoline]	−27	>200 C.	Partial ~2%
CCCCCCCC/C=C\CCCCCCCC(=O)NCCNCCNC(=O)CCCCCCC/C=C\CCCCCCCC [Inventive Ex. 3, diethylenetriamine (DETA) oleic acid bisamide]	78	>200 C.	none
